This note sets out measurements from patent US20200131227A1, “POLYPEPTIDE WITH TUMOUR BINDING ACTIVITY” (RUPRECHT-KARLS-UNIVERSITÄT HEIDELBERG, priority 2017, published 2020).

For test [1], the system named is HNSCC tumor sections (HNO97 xenograft, HNO444, HNO399, HNO210). Nature of the test: Histochemical peptide staining of HNSCC tumor cryosections. Also noted: species or system human. Particulars: biotinylated PEG(12)-peptide, 10^-5 M. On the procedure: Staining with the biotinylated PEG(12)-SFITGv6 peptide was performed on acetone-fixed cryosections (5 μm) of tumor tissues after blocking of unspecific binding using the Avidin/Biotin Blocking Kit (SP-2001, Vector Laboratories). A stock solution of the lyophilized peptide was prepared by dilution in 5% aqueous DMSO. Slices were incubated overnight at 4° C. with 10^-5 M peptide concentration in antibody diluent (DAKO). Detection of bound peptide was carried out with the Vectastain Elite ABC Kit (PK-6100, Vector Laboratories) according to manufacturer's protocol. Peptide specificity was ensured by a scrambled (GRD) PEG(12)-SFITGv6 derivate, the somatostatin receptor ligand DOTATOC and negative controls (without peptide or primary antibody) Staining results were assessed by bright field microscopy (BX50) with the SC30 camera and the cell Sense software (all Olympus).
Immunohistochemical stainings were performed by use of the biotinylated PEG(12)-labled peptides (SFITGv6, SFLAP3) on 5 μm acetone-fixed tumor tissue cryosections. To prevent background staining we initially applied the Avidin/Biotin Blocking Kit (SP-2001, Vector Laboratories). The lyophilized peptides were diluted in 5% aqueous DMSO preparing a 1 mM Stock solution. The HNSCC cryosections were incubated with 10^−5 M peptide concentration in antibody diluent (DAKO) at 4° C. overnight. To detect bound peptide the Vectastain Elite ABC Kit (PK-6100, Vector Laboratories) was applied according to manufacturer's protocol. Peptide binding specificity was ensured by use of a peptide derivate (scrambled control) and negative controls (without peptide). Due to instability of the peptide binding staining results were assessed on the same day by bright field microscopy (BX50) with the SC30 camera and the cell Sense software (all Olympus).

Test [2] relates to HNO97 cells. It counts as binding, human. The settings on record: 48 h. How it is done: (§1) For binding studies, 2.5×10^5 to 4×10^5 cells were seeded in 6-well plates and cultivated for 48 hours. Cells were incubated for 60 min with 1 mL serum-free medium containing the ^125I-labeled peptide (see above). For competition experiments, cells were simultaneously exposed to unlabeled (10^-4 M to 10^-10 M) and ^125I-labeled peptides. After three washing steps with PBS (pH 7.4) the cells were lysed with 0.5 mL of 0.3 M NaOH. Experiments concerning the internalization, kinetics and efflux were additionally performed with ^177Lu-DOTA-SFITGv6. To evaluate kinetics and efflux HNO97 cells were incubated for different time intervals (10 min to 480 min) and 60 min, respectively, with ^177Lu-DOTA-SFITGv6 and lysed as described. To continue with the efflux experiment radioactive medium was replaced by non-radioactive medium and cells were incubated again for 60 to 240 min before measuring radioactivity of the cell lysates and the medium. For internalization experiments the cells were exposed to ^177Lu-DOTA-SFITGv6 for different time intervals (10 to 240 min) at 37° C. and 4° C. After three washing steps with PBS the cells were incubated with 1 mL of glycine-HCl 50 mmol/L in PBS (pH 2.8) for 10 min at RT to remove the surface bound activity. Then, cells were washed with 3 mL of ice-cold PBS and lysed as described. Radioactivity was determined in a gamma counter and calculated as percentage of the applied dose per 1×10^6 cells. Experiments were performed three times, and three repetitions per independent experiment were acquired.

A further test has as its system Capan-2 cells. Nature of the test: In vitro binding, internalization and efflux on Capan-2 cells. It counts as cell-based, human. On the procedure: For in vitro binding Studies, 4*10^5-6*10^5 cells were seeded in 6 well plates and cultivated for 24 to 48 hours. At the start of the experiment the medium was replaced with 1 ml serum free medium with a definite amount of radioactive labeled peptide per well. For normal binding assays the cells were incubated for 60 min at 37° C. and afterwards washed 3 times with PBS (pH 7.4). Cells were lysed with 2 times 0.5 ml of a 0.3 M NaOH +0.2% SDS lysis-buffer. Competition assays were performed with ^125I-labeled and unlabelled (10^−6 to 10^−11M) peptide and incubated at the same time for 60 min.
Cells were incubated for 10 to 240 min with ^177Lu-labelled peptide in internalization assays. After the washing steps, the cells were incubated with 1 ml glycine-HCl (1 M, pH 2.2) buffer for 10 min to remove surface bound peptide. Prior to the lyses the cells were washed again. Values are given as percentage of applied dose per 10^6 cells.
The efflux was tested with ^177Lu-labeled peptides. After 60 min incubation the radioactive medium was removed and 1 ml fresh serum-free medium was added. After additional incubation of 60, 120 or 240 min, cell bound activity was measured.

In another test the test system is carcinoma cell lines. Put plainly: In vitro binding of radiolabeled peptides to several carcinoma cell lines. It counts as cell-based, human. The settings on record: HNO97, HNO399, HNO223, HNO210, HNO199; 60 min. On the procedure:
as §1
(§2) For the assessment of the peptide binding capacity in vitro, 2.5-4×10^5 cells were seeded into 6-well plates and cultivated for 48 h. ^125I-labeled peptide resuspended in 1 mL serum-free medium was added and incubated for either 10 min or 60 min with or without different concentrations of unlabeled peptide (10^−4-10^−11 M). Afterwards, cell monolayers were washed three times with 1 mL phosphate-buffered saline (pH 7.4) to remove unbound peptide and the cells were harvested with 1.4 mL lysis buffer (0.3 M NaOH). To evaluate kinetic properties the cells were exposed to ^177Lu-DOTA-labeled peptides for 10, 30, 60, 120, and 240 min, respectively, and lysed as described. For the efflux experiments the cells were incubated with ^177Lu-DOTA-labeled peptides for 60 min. Thereafter, radioactive medium was replaced by non-radioactive medium and cell monolayers were incubated for additional 60, 120, and 240 min and afterwards lysed as described earlier. The internalization was assessed after exposure of the cells to ^177Lu-DOTA-labeled peptides for 10, 30, 60, 120, and 240 min at 37° C. Unspecifically bound peptide was removed from the surface by incubation with 1 M glycine-HCl solution (pH 2.2) for 10 min. The monolayer cell was rinsed with PBS and cells were lysed as described before. Radioactivity was determined in a y-counter and calculated as percentage of the applied dose per 1×10^6 cells. Experiments were performed three times, and three repetitions per independent experiment were acquired.

The subject of test [3] is HNO97 cells. Nature of the test: In vitro binding, kinetics, internalization and efflux on HNO97 cells. The test is classed as cell-based, human. The settings on record: continuously increasing, within 480 min. How it is done:
as §1, §2

Test [4] deals with T1, integrin αvβ6 (ITGαvβ6) as expressed on human carcinoma cell lines and tumor tissue sections (human, UniProt P06756 31-1048; P18564 22-788).
T1 construct: whole, on cells; also called ITGAVB6; ITGαvβ6-expressing HNO97 cells
T1 sequence (P06756 31-1048, chain 1 of 2): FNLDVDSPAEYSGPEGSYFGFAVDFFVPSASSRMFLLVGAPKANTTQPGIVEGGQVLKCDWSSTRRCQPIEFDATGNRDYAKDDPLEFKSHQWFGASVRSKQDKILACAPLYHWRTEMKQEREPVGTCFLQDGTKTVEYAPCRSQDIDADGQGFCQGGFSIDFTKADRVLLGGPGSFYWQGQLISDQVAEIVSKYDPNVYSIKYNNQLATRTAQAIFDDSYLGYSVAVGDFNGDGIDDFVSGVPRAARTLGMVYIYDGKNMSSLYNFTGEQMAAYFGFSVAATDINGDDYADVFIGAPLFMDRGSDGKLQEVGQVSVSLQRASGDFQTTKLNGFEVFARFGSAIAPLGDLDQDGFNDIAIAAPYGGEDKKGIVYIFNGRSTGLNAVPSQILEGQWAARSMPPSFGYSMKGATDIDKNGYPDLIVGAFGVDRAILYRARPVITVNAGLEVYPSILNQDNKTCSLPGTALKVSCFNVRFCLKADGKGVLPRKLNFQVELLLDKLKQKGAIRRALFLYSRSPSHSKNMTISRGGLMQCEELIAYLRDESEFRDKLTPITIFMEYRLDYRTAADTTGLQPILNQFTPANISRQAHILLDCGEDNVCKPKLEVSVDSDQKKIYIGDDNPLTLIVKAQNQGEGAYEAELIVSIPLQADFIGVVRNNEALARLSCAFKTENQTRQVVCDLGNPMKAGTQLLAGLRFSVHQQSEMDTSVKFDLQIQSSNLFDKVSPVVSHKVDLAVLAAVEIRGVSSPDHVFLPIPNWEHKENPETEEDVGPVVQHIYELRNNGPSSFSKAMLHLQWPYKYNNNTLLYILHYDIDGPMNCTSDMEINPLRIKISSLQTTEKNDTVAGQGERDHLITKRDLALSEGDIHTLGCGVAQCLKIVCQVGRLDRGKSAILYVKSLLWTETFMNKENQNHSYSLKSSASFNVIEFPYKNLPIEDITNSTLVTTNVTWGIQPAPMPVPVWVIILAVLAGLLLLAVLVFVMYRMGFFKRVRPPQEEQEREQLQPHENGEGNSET
T1 sequence (P18564 22-788, chain 2 of 2): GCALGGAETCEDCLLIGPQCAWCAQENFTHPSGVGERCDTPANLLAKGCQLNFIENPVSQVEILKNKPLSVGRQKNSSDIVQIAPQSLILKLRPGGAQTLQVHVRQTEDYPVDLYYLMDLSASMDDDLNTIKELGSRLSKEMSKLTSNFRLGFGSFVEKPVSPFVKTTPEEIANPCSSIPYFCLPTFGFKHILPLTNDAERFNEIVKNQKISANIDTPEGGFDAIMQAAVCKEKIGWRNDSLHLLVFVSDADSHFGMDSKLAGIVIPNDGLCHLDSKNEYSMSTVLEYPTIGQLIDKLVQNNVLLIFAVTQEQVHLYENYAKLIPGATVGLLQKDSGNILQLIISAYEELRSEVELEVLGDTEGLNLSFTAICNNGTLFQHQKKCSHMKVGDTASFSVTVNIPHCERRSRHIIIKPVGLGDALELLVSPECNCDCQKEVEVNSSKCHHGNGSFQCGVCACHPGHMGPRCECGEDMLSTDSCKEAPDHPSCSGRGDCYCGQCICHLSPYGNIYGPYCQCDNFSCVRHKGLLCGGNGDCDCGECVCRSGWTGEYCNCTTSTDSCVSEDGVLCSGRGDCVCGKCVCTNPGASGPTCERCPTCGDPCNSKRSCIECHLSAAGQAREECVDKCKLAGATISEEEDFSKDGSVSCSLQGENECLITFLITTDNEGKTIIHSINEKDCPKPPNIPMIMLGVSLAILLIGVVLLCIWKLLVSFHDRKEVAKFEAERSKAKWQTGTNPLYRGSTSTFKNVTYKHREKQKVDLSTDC
Put plainly: unlabelled peptide competing with the 125I-labelled peptide on Capan-2 cells, 60 min.

Where a SMILES comes first, the peptide text is derived from it. Bridges are numbered along the chain shown (N, C = ends). Roman numbers before positions name the chains, in order. Where no end group is shown, it is not given here. The star is where a group is joined. DOTA = O=C(O)CN1CCN(CC(=O)O)CCN(CC(=O)*)CCN(CC(=O)O)CC1

On to `C[C@@H](O)[C@@H]1NC(=O)[C@H](CCCCN)NC(=O)[C@@H](Cc2c[nH]c3ccccc23)NC(=O)[C@H](Cc2ccc(O)cc2)NC(=O)[C@@H](NC(=O)[C@@H](Cc2ccccc2)NC(=O)CN2CCN(CC(=O)O)CCN(CC(=O)O)CCN(CC(=O)O)CC2)CSSC[C@@H](C(=O)N[C@H](CO)[C@@H](C)O)NC1=O` [DOTATOC, DOTA(0)-Phe(1)-Tyr(3))octreotid, reference compound], for which the “histochemical peptide staining result” value in test [1] is “could not observe any specific binding”.
By IC50 is commonly meant the midpoint of a concentration-inhibition curve. The low end stands for greater potency in that assay, the high end for weaker potency in that assay. The molecule `CC(C)C[C@H](NC(=O)[C@H](CC(=O)O)NC(=O)CNC(=O)[C@H](CCCNC(=N)N)NC(=O)[C@@H]1CCCN1C(=O)[C@@H](N)CO)C(=O)N[C@@H](C)C(=O)N[C@H](C(=O)N[C@@H](CC(C)C)C(=O)NCC(=O)N[C@@H](Cc1c[nH]cn1)C(=O)N[C@@H](CCCCN)C(=O)N[C@@H](Cc1ccc(O)cc1)C(N)=O)C(C)C` [HBP-1, reference compound] (H-SPRGDLAVLGHKY-NH2; N-terminus and C-terminus assumed) yielded an IC50 in the test on HNO97 cells [2] of 45.1 nM.
The same measure, in the same setting: the value for `CSCC[C@@H]1NC(=O)[C@H](CCCCN)NC(=O)[C@H](CC(=O)O)NC(=O)CNC(=O)[C@H](CCCNC(=N)N)NC(=O)[C@H](Cc2ccccc2)NC(=O)[C@H]([C@@H](C)O)NC(=O)[C@@H](NC(=O)[C@H](CCCNC(=N)N)NC(=O)CN)CSSC[C@@H](C(=O)N[C@@H](Cc2ccc(O)cc2)C(=O)N2CCC[C@H]2C(=O)N[C@@H](CC(=O)O)C(=O)O)NC(=O)[C@H](CC(C)C)NC(=O)[C@H](CCC(N)=O)NC1=O` [SFPF-10] (H-GRCTFRGDKMQLCYPD-OH; disulfide 3-13; N-terminus and C-terminus assumed) was 18 nM.
For the molecule “H2N-G-R-C1-T-G-R-G-D-L-G-R-L-K-C2-Y-P-D-COOH (H-GRCTGRGDLGRLKCYPD-OH; disulfide 3-14; SMILES CC(C)C[C@@H]1NC(=O)[C@H](CC(=O)O)NC(=O)CNC(=O)[C@H](CCCNC(=N)N)NC(=O)CNC(=O)[C@H]([C@@H](C)O)NC(=O)[C@@H](NC(=O)[C@H](CCCNC(=N)N)NC(=O)CN)CSSC[C@@H](C(=O)N[C@@H](Cc2ccc(O)cc2)C(=O)N2CCC[C@H]2C(=O)N[C@@H](CC(=O)O)C(=O)O)NC(=O)[C@H](CCCCN)NC(=O)[C@H](CC(C)C)NC(=O)[C@H](CCCNC(=N)N)NC(=O)CNC1=O) [SFLAP3K]”, in the test with Capan-2 cells (different pancreatic carcinoma cell lines (FIG. 25D)), the “cellular uptake of ^125I-labeled variant compared with SFLAP3” value was “increased cellular uptake”.
“SFLAP1: SFTI derivate with grafted LAP1 octamer RRGDLAFI (GRCTRRGDLAFICYPD; disulfide 3-13 (inferred); also: 125I on the tyrosine in labelled form)”: in the test with carcinoma cell lines, the “binding capacity of ^125I-labeled peptide across HNSCC cell lines” value is 4.1-12.1%.
As for “^177Lu-DOTA-SFLAP3K: ^177Lu-DOTA-labeled SFLAP3K ({DOTA}-GRCTGRGDLGRLKCYPD; disulfide 3-14; also: DOTA loaded with 177Lu)”, in the test on Capan-2 cells (10 and 60 min), the “cellular uptake of ^177Lu-DOTA-labeled peptide compared with ^177Lu-DOTA-SFLAP3” value is on record as “did not result in an increased cellular uptake”. Further, the “efflux (released into the culture medium)” value in the test with Capan-2 cells (during 4 hours following 60 min exposure) is on record as 50%.
Consider “^177Lu-DOTA-SFPF10: ^177Lu-DOTA-labeled SFPF-10 ({DOTA}-GRCTFRGDKMQLCYPD; disulfide 3-13 (inferred); also: DOTA loaded with 177Lu)”, for which, in the test with HNO97 cells [3], the “binding of ^177Lu-DOTA-labeled peptide (kinetics)” value is reported as “up to 23%”.
For the molecule “biotinylated PEG(12)-SFITGv6: biotinylated PEG(12)-SFITGv6 peptide for histochemical staining (GRCTFRGDLMQLCYPD; disulfide 3-13; also: biotinylated PEG(12) label, site not given here)”, the “histochemical peptide staining result” value in test [1] (listed as biotin-labeled SFITGv6) is “strong and homogenous tumor cell-specific binding”; in test [1] (listed as biotinylated SFITGv6), “specific, strong and homogeneous binding”.

B1: ^177Lu-DOTA-SFLAP3K (peptide)
peptide: {DOTA}-GRCTGRGDLGRLKCYPD
modifications: disulfide 3-14; also: DOTA loaded with 177Lu (or peptide 125I-labelled in competition assay)
notes: DOTA conjugate of SFLAP3K
With B1, the IC50 in test [4] stood at 2.1 nM.

B2: ^177Lu-DOTA-SFLAP3-trimer (Formula (XXVII)) (peptide)
chain: {DOTA}-GSGSKGSGSKGSGSK
peptide: GRCTGRGDLGRLCYPD
modifications: disulfide II:3-II:13; also: 177Lu chelated by DOTA, three SFLAP3 units attached by oxime ligation, aminooxy-modified, sites not given here, only one SFLAP3 unit listed as chain
notes: Branched trimer; the exact connectivity stands only in the drawing of formula (XXVII), which is not readable here; also called trimerized peptide
B2 displayed an IC50 in test [4] of 0.76 nM.

B3: ^177Lu-DOTA-SFLAP3 (peptide)
peptide: {DOTA}-GRCTGRGDLGRLCYPD
modifications: disulfide 3-13; also: DOTA loaded with 177Lu (or peptide 125I-labelled in competition assay)
notes: DOTA conjugate of SFLAP3
Turning to B3, the IC50 in test [4] is 6.2 nM.
